Measurements: paper PMC12365235, “Molecular mechanisms of thiazide-like diuretics-mediated inhibition of the human Na-Cl cotransporter” (Nature Communications, 2025)

Target: T1, hNCC(N149A) (Homo sapiens, UniProt P55017, N149A)
T1 construct: expressed in transfected cells
T1 sequence (P55017 1-1021 N149A): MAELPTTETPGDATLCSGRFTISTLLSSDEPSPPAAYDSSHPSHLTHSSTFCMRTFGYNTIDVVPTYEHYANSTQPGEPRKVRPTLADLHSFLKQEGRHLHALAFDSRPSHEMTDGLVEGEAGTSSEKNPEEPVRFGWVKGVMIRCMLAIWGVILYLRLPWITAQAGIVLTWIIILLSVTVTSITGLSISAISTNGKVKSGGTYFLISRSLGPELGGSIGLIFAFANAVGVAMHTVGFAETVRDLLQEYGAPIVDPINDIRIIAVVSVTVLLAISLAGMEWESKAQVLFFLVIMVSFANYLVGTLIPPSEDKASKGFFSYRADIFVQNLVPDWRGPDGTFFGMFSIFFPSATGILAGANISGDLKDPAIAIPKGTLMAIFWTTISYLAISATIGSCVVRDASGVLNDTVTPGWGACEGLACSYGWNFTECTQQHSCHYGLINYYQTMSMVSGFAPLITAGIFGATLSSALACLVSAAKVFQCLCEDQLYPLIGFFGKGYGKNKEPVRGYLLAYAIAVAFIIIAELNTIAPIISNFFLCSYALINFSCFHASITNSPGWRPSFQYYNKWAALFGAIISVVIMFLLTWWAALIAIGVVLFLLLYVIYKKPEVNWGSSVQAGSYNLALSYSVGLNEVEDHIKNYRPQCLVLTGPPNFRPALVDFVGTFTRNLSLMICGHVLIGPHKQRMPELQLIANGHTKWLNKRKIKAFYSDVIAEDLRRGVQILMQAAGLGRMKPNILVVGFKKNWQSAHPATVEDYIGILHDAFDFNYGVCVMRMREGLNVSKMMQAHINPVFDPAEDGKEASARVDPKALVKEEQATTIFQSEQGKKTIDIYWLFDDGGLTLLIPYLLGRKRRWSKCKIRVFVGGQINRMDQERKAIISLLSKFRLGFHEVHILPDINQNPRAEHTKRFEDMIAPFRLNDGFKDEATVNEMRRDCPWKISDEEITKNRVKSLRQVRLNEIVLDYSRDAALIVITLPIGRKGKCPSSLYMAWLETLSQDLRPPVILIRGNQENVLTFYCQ
Assay: 125I- uptake assay, hNCC(N149A) variant
Format: cell-based
Settings: N149A substitution; for IC50: iodide uptake
Experimental: HEK293S cell lines, cultured in 293 Freestyle medium (Life Technologies; plus 10% fetal bovine serum), stably expressing hNCC and its variants were generated following published protocols. Cells were transfected using Lipofectamine 3000 (Invitrogen) with a pSBbi-RP-based plasmid containing hNCC or its variants and the SB100X vector. Puromycin (2 μg/mL; Gemini Bio-Products) was used for selection of stable cell lines.
To prepare for the uptake experiment, cells were plated at 0.5 × 10^6 cells/well in 24-well plates one day in advance. To activate NCC, cells were treated with a chloride-free hypotonic solution composed of 67.5 mM sodium-, 2.5 mM potassium-, 0.25 mM magnesium-, and 0.25 mM calcium-gluconate, as well as 7.5 mM HEPES pH 7.4 (buffered using Tris) at 37 °C for 10 min[72]. After the activation step, the experiments were carried out at room temperature. Ten minutes before the start of ^125I^− uptake, 70 μM Bumetanide (Thermo Scientific Chemicals) and 100 μM 4,4′-diisothiocyanatostilbene-2,2′-disulfonic acid (DIDS; Sigma) were added to suppress background iodide uptake activity. Indicated thiazide diuretics were also added to the indicated concentrations 10 min before the start of ^125I^− uptake. The original buffer was switched to an uptake buffer composed of 135 mM Na-gluconate, 5 mM K-gluconate, 1 mM Mg-gluconate, 1 mM Ca-gluconate, 70 μM bumetanide, 100 μM DIDS, 1 mM NaI, 0.25 μCi/ml Na^125I (American Radiolabeled Chemicals, Inc.), and 15 mM HEPES pH 7.4 (buffered using Tris), in the presence or absence of thiazide diuretics to initiate ^125I^− uptake. The ^125I^− uptake process lasted 1 h and was stopped by two rapid washes using ice-cold 110 mM MgCl2. Cells lysed using 1% sodium dodecyl sulfate (SDS) were analyzed by scintillation counting.
To calculate the fold change of the half-maximal inhibitory concentration (IC50) between hNCC(WT) and different hNCC variants, individual dose-response curves were normalized first using the smallest mean and the value of the lowest concentration as 0% and 100%, respectively. The normalized data were then fitted using the “EC50 shift” nonlinear regression in GraphPad Prism 10 with the shared EC50Control assigned to be the IC50 of hNCC(WT). The following constraints were used in the EC50 shift analysis. The EC50Control was set to be shared across all curves under analysis and constrained to be greater than 0. The EC50Ratio was constrained to be greater than 0. The bottom, top, and HillSlope were constrained to be 0, 100, and −1, respectively. For Fig. 1f, g and Supplementary Fig. 2d, GraphPad Prism 10 was used to perform curve fitting and IC50 calculation for normalized data using y = 100/(1 + (x/IC50)).

| Compound | fold less sensitive than hNCC(WT) | IC50 [nM] |
| --- | --- | --- |
| NS(=O)(=O)c1cc(C2(O)NC(=O)c3ccccc32)ccc1Cl (stereo not shown) [chlorthalidone] | ~95 fold | 2200 |
| CC1Cc2ccccc2N1NC(=O)c1ccc(Cl)c(S(N)(=O)=O)c1 (stereo not shown) [indapamide] | approximately 27 fold | 340 |
